Measured values: PubChem BioAssay (NCI)
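Briefly, cells in 96-well plates were exposed to five compound concentrations for 48 h, and endpoints were estimated by linear interpolation. Abbreviation: GI50, concentration required for 50% inhibition of growth. Definition used: TGI = concentration required for complete inhibition of growth.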

Experiments:
Experiment in all cases: NCI-60 cell line screen, 48 h
SNB-75 CNS = tested on: SNB-75 CNS
XF 498 CNS = tested on: XF 498 CNS
SNB-19 CNS = tested on: SNB-19 CNS
LOX IMVI melanoma = tested on: LOX IMVI melanoma
HCT-116 colon = tested on: HCT-116 colon
SK-MEL-5 melanoma = tested on: SK-MEL-5 melanoma
SF-295 CNS = tested on: SF-295 CNS
LXFL 529 NSCLC = tested on: LXFL 529 NSCLC
SNB-78 CNS = tested on: SNB-78 CNS
DLD-1 colon = tested on: DLD-1 colon
SF-539 CNS = tested on: SF-539 CNS
DMS 273 small cell lung = tested on: DMS 273 small cell lung
HOP-92 NSCLC = tested on: HOP-92 NSCLC
NCI-H522 lung = tested on: NCI-H522 lung
U251 CNS = tested on: U251 CNS
OVCAR-8 ovarian = tested on: OVCAR-8 ovarian
KM20L2 colon = tested on: KM20L2 colon
EKVX NSCLC = tested on: EKVX NSCLC
SK-MEL-2 melanoma = tested on: SK-MEL-2 melanoma
HCT-15 colon = tested on: HCT-15 colon
SN12C renal = tested on: SN12C renal
SK-MEL-28 melanoma = tested on: SK-MEL-28 melanoma
MALME-3M melanoma = tested on: MALME-3M melanoma
KM12 colon = tested on: KM12 colon
A549 NSCLC = tested on: A549 NSCLC
M14 melanoma = tested on: M14 melanoma
M19-MEL melanoma = tested on: M19-MEL melanoma
COLO 205 colon = tested on: COLO 205 colon
UO-31 renal = tested on: UO-31 renal
SR leukemia = tested on: SR leukemia
OVCAR-3 ovarian = tested on: OVCAR-3 ovarian
HT29 colon = tested on: HT29 colon
TK-10 renal = tested on: TK-10 renal
HOP-18 NSCLC = tested on: HOP-18 NSCLC
SF-268 CNS = tested on: SF-268 CNS
NCI-H23 lung = tested on: NCI-H23 lung
SW-620 colon = tested on: SW-620 colon
RXF 393 renal = tested on: RXF 393 renal
NCI-H460 lung = tested on: NCI-H460 lung
OVCAR-5 ovarian = tested on: OVCAR-5 ovarian
HL-60(TB) leukemia = tested on: HL-60(TB) leukemia
A498 renal = tested on: A498 renal
DMS 114 small cell lung = tested on: DMS 114 small cell lung
ACHN renal = tested on: ACHN renal
UACC-257 melanoma = tested on: UACC-257 melanoma
HCC-2998 colon = tested on: HCC-2998 colon
SK-OV-3 ovarian = tested on: SK-OV-3 ovarian
IGROV1 ovarian = tested on: IGROV1 ovarian
HOP-62 NSCLC = tested on: HOP-62 NSCLC
CAKI-1 renal = tested on: CAKI-1 renal
UACC-62 melanoma = tested on: UACC-62 melanoma
OVCAR-4 ovarian = tested on: OVCAR-4 ovarian
MOLT-4 leukemia = tested on: MOLT-4 leukemia
K-562 leukemia = tested on: K-562 leukemia
NCI-H226 lung = tested on: NCI-H226 lung
RXF-631 renal = tested on: RXF-631 renal
786-0 renal = tested on: 786-0 renal
CCRF-CEM leukemia = tested on: CCRF-CEM leukemia
RPMI-8226 leukemia = tested on: RPMI-8226 leukemia

Q: How did the TGI (SNB-75 CNS) turn out when `CCCCCC1CC(C(C)=O)CN1c1ccc(F)cc1` (stereo not drawn) was run?
A: Its TGI is 86.5 µM.

Q: And the TGI (XF 498 CNS)?
A: Its TGI is 52.5 µM.

Q: What about the TGI (SNB-19 CNS) of the same compound?
A: Its TGI is > 10 µM.

Q: And the TGI (LOX IMVI melanoma)?
A: Its TGI is > 100 µM.

Q: What about the TGI (HCT-116 colon) of the same compound?
A: The TGI was > 100 µM.

Q: And the TGI (SK-MEL-5 melanoma)?
A: Its TGI is 38.3 µM.

Q: And the TGI (SF-295 CNS)?
A: The TGI was 63.3 µM.

Q: And the TGI (LXFL 529 NSCLC)?
A: Its TGI is > 100 µM.

Q: And the TGI (SNB-78 CNS)?
A: The TGI was > 100 µM.

Q: And the TGI (DLD-1 colon)?
A: Its TGI is > 100 µM.

Q: What about the TGI (SF-539 CNS) of the same compound?
A: Its TGI is > 100 µM.

Q: What about the TGI (DMS 273 small cell lung) of the same compound?
A: Its TGI is > 100 µM.

Q: And the TGI (HOP-92 NSCLC)?
A: The TGI was 83.6 µM.

Q: And the TGI (NCI-H522 lung)?
A: Its TGI is 56.5 µM.

Q: What about the TGI (U251 CNS) of the same compound?
A: The TGI was > 100 µM.

Q: What about the TGI (OVCAR-8 ovarian) of the same compound?
A: Its TGI is > 100 µM.

Q: What about the TGI (KM20L2 colon) of the same compound?
A: The TGI was > 100 µM.

Q: And the TGI (EKVX NSCLC)?
A: Its TGI is > 100 µM.

Q: What about the TGI (SK-MEL-2 melanoma) of the same compound?
A: The TGI was > 100 µM.

Q: What about the TGI (HCT-15 colon) of the same compound?
A: Its TGI is > 100 µM.

Q: And the TGI (SN12C renal)?
A: Its TGI is > 100 µM.

Q: What about the TGI (SK-MEL-28 melanoma) of the same compound?
A: Its TGI is > 100 µM.

Q: And the TGI (MALME-3M melanoma)?
A: The TGI was > 100 µM.

Q: And the TGI (KM12 colon)?
A: Its TGI is > 100 µM.

Q: And the TGI (A549 NSCLC)?
A: Its TGI is > 100 µM.

Q: And the TGI (M14 melanoma)?
A: The TGI was > 100 µM.

Q: And the TGI (M19-MEL melanoma)?
A: Its TGI is > 100 µM.

Q: And the TGI (COLO 205 colon)?
A: Its TGI is > 100 µM.

Q: What about the TGI (UO-31 renal) of the same compound?
A: The TGI was > 100 µM.

Q: What about the TGI (SR leukemia) of the same compound?
A: The TGI was > 10 µM.

Q: What about the TGI (OVCAR-3 ovarian) of the same compound?
A: The TGI was 90.1 µM.

Q: What about the TGI (HT29 colon) of the same compound?
A: The TGI was > 100 µM.

Q: What about the TGI (TK-10 renal) of the same compound?
A: The TGI was > 100 µM.

Q: And the TGI (HOP-18 NSCLC)?
A: Its TGI is 82.5 µM.

Q: And the TGI (SF-268 CNS)?
A: The TGI was > 100 µM.

Q: And the TGI (NCI-H23 lung)?
A: The TGI was 63.8 µM.

Q: And the TGI (SW-620 colon)?
A: The TGI was > 100 µM.

Q: And the TGI (RXF 393 renal)?
A: Its TGI is > 100 µM.

Q: And the TGI (NCI-H460 lung)?
A: Its TGI is > 100 µM.

Q: What about the TGI (OVCAR-5 ovarian) of the same compound?
A: The TGI was > 100 µM.

Q: What about the TGI (HL-60(TB) leukemia) of the same compound?
A: The TGI was > 10 µM.

Q: And the TGI (A498 renal)?
A: Its TGI is > 100 µM.

Q: And the TGI (DMS 114 small cell lung)?
A: The TGI was 62 µM.

Q: And the TGI (ACHN renal)?
A: The TGI was > 100 µM.

Q: What about the TGI (UACC-257 melanoma) of the same compound?
A: The TGI was > 100 µM.

Q: And the TGI (HCC-2998 colon)?
A: The TGI was > 100 µM.

Q: What does the source list for `O=C(N/N=C/c1cc(Cl)cc(Cl)c1[O-])c1ccccc1O.O=C(N/N=C/c1cc(Cl)cc(Cl)c1[O-])c1ccccc1O.[Cu+2]`?
A: TGI (SNB-75 CNS): 2.13 µM; TGI (SNB-19 CNS): 2.05 µM; TGI (LOX IMVI melanoma): 1.46 µM; TGI (SK-OV-3 ovarian): 1.38 µM; GI50 (HCT-116 colon): 0.255 µM; TGI (HCT-116 colon): 0.597 µM; TGI (SK-MEL-5 melanoma): 0.966 µM; TGI (IGROV1 ovarian): 1.16 µM; TGI (SF-295 CNS): 1.26 µM; GI50 (SF-539 CNS): 0.306 µM; TGI (SF-539 CNS): 1.02 µM; GI50 (HOP-92 NSCLC): 0.224 µM; TGI (HOP-92 NSCLC): 0.671 µM; TGI (NCI-H522 lung): 0.568 µM; TGI (U251 CNS): 1.34 µM; TGI (OVCAR-8 ovarian): 1.08 µM; GI50 (KM20L2 colon): 0.909 µM; TGI (KM20L2 colon): 2.28 µM; GI50 (SK-MEL-2 melanoma): 0.746 µM; TGI (SK-MEL-2 melanoma): 2.1 µM; TGI (HCT-15 colon): 1.61 µM; TGI (HOP-62 NSCLC): 0.901 µM; TGI (CAKI-1 renal): 1.13 µM; TGI (SK-MEL-28 melanoma): 8.79 µM; GI50 (MALME-3M melanoma): 0.367 µM; TGI (MALME-3M melanoma): 1.38 µM; GI50 (KM12 colon): 0.442 µM; TGI (KM12 colon): 1.59 µM; GI50 (A549 NSCLC): 0.385 µM; TGI (A549 NSCLC): 1.65 µM; TGI (M14 melanoma): 0.964 µM; TGI (UACC-62 melanoma): 0.819 µM; GI50 (COLO 205 colon): 0.186 µM; TGI (COLO 205 colon): 0.348 µM; TGI (UO-31 renal): 1.41 µM; TGI (SR leukemia): 0.511 µM; TGI (OVCAR-3 ovarian): 0.778 µM; TGI (HT29 colon): 2.06 µM; TGI (TK-10 renal): 1.65 µM; TGI (OVCAR-4 ovarian): 0.637 µM; TGI (SF-268 CNS): 1.61 µM; GI50 (NCI-H23 lung): 0.436 µM; TGI (NCI-H23 lung): 1.66 µM; TGI (SW-620 colon): 1.97 µM; TGI (RXF 393 renal): 0.766 µM; TGI (OVCAR-5 ovarian): 1.92 µM; TGI (HL-60(TB) leukemia): 0.512 µM; TGI (ACHN renal): 1.57 µM; GI50 (MOLT-4 leukemia): 0.285 µM; TGI (MOLT-4 leukemia): 2.12 µM; TGI (K-562 leukemia): 0.545 µM; TGI (UACC-257 melanoma): 0.914 µM; TGI (HCC-2998 colon): 1.46 µM

Q: What does the source list for `CCCCCCCCC1C(C)c2c([nH]c3ccccc23)C2C(=O)N(c3ccccc3)C(=O)C21` (stereo not drawn)?
A: TGI (SNB-75 CNS): 39.9 µM; TGI (SK-OV-3 ovarian): 51.1 µM; TGI (HCT-116 colon): 12.5 µM; TGI (SK-MEL-5 melanoma): 31.7 µM; TGI (IGROV1 ovarian): 36.2 µM; TGI (SF-295 CNS): 29.8 µM; TGI (LXFL 529 NSCLC): 30.1 µM; TGI (SNB-78 CNS): 29.8 µM; TGI (DLD-1 colon): 45.2 µM; TGI (SF-539 CNS): 32.7 µM; TGI (DMS 273 small cell lung): 22.2 µM; TGI (U251 CNS): 22.9 µM; TGI (NCI-H226 lung): 25.9 µM; TGI (OVCAR-8 ovarian): 28.4 µM; TGI (KM20L2 colon): 31.7 µM; TGI (EKVX NSCLC): 51.1 µM; TGI (SK-MEL-2 melanoma): 33.3 µM; TGI (HCT-15 colon): 25.6 µM; TGI (HOP-62 NSCLC): 38.3 µM; TGI (CAKI-1 renal): 27.5 µM; TGI (SN12C renal): 23.8 µM; TGI (SK-MEL-28 melanoma): 34.3 µM; TGI (MALME-3M melanoma): 39.1 µM; TGI (RXF-631 renal): 14.2 µM; TGI (KM12 colon): 13.5 µM; TGI (A549 NSCLC): 38 µM; TGI (M14 melanoma): 28 µM; TGI (786-0 renal): 26.5 µM; TGI (M19-MEL melanoma): 31.9 µM; TGI (UACC-62 melanoma): 36.4 µM; TGI (UO-31 renal): 28.5 µM; TGI (OVCAR-3 ovarian): 16.7 µM; TGI (HT29 colon): 19.1 µM; TGI (TK-10 renal): 37.1 µM; TGI (OVCAR-4 ovarian): 15.8 µM; TGI (NCI-H23 lung): 14.7 µM; TGI (SW-620 colon): 41.5 µM; TGI (CCRF-CEM leukemia): 7.09 µM; TGI (RXF 393 renal): 6.84 µM; TGI (NCI-H460 lung): 12.9 µM; TGI (OVCAR-5 ovarian): 33.6 µM; TGI (RPMI-8226 leukemia): 12.9 µM; TGI (HL-60(TB) leukemia): 13.9 µM; TGI (A498 renal): 36.9 µM; TGI (DMS 114 small cell lung): 23.4 µM; TGI (ACHN renal): 23.7 µM; TGI (MOLT-4 leukemia): 7.18 µM; TGI (K-562 leukemia): 14.7 µM; TGI (HCC-2998 colon): 25.6 µM
